Reference: US7838275B2, “Anti-HIV and anti-tumor peptides and fragments of lysozyme” (priority 2000, dated 2010)
Where two headings read alike, the source gives them in different places. Peptide text beside a SMILES is read from it.

Key:
HIV-1 = system: HIV-1
Procedure: Human lysozyme (2 mg) was treated with clostripain (10 units, Sigma) in 400 μl of Tris buffer, pH7.6 at 37° C. for 24 h. The digest was resolved by reversed phase chromatography on a ProRPC column (Hr5/10). […] The fractions were assayed for anti-HIV activity by p24 production in HIV-1 infected ACH2 T lymphocytes as described in Lee-Huang et al. (1999).

[1] = system: HHV8 infected cells of AIDS patients with Kaposi's sarcoma

Molecule | EC50 (HIV-1; 24 h) | Anti-HIV activity (EC50) (HIV-1) | other results
CC(C)[C@H](NC(=O)[C@H](Cc1c[nH]c2ccccc12)NC(=O)[C@H](C)NC(=O)[C@@H](N)CC(N)=O)C(=O)N[C@@H](C)C(=O)N[C@@H](Cc1c[nH]c2ccccc12)C(=O)N[C@@H](CCCNC(=N)N)C(=O)N[C@@H](CC(N)=O)C(=O)N[C@@H](CCCNC(=N)N)C(=O)O [HL9 (R107→N), NAWVAWRNR] (H-NAWVAWRNR-OH) | > 100000 nM | – | –
CC(C)[C@H](NC(=O)[C@H](Cc1c[nH]c2ccccc12)NC(=O)[C@H](C)NC(=O)[C@@H](N)CCCNC(=N)N)C(=O)N[C@@H](C)C(=O)N[C@@H](Cc1c[nH]c2ccccc12)C(=O)N[C@@H](CCCCN)C(=O)N[C@@H](CC(N)=O)C(=O)N[C@@H](CCCNC(=N)N)C(=O)O [HL9 (R113→K), RAWVAWKNR] (H-RAWVAWKNR-OH) | > 100000 nM | – | –
CC(C)[C@H](NC(=O)[C@H](Cc1c[nH]c2ccccc12)NC(=O)[C@H](C)NC(=O)[C@@H](N)CCCNC(=N)N)C(=O)N[C@@H](C)C(=O)N[C@@H](Cc1c[nH]c2ccccc12)C(=O)N[C@@H](CCCNC(=N)N)C(=O)N[C@@H](CC(N)=O)C(=O)N[C@@H](CCCCN)C(=O)O [HL9 (R115→K), RAWVAWRNK] (H-RAWVAWRNK-OH) | > 100000 nM | – | –
CC(C)[C@H](NC(=O)[C@H](Cc1c[nH]c2ccccc12)NC(=O)[C@H](C)NC(=O)[C@@H](N)CCCNC(=N)N)C(=O)N[C@@H](C)C(=O)N[C@@H](Cc1c[nH]c2ccccc12)C(=O)N[C@@H](CCCNC(=N)N)C(=O)N[C@@H](CC(N)=O)C(=O)N[C@@H](CCCNC(=N)N)C(=O)O [HL9, RAWVAWRNR] (H-RAWVAWRNR-OH) | – | – | EC50 [1]: 48 nM
CC[C@H](C)[C@H](NC(=O)CNC(=O)[C@H](CCC(N)=O)NC(=O)[C@@H]1CCCN1C(=O)[C@H](CC(=O)O)NC(=O)[C@H](CCCNC(=N)N)NC(=O)[C@@H](NC(=O)[C@@H](NC(=O)[C@@H](N)CCCNC(=N)N)C(C)C)C(C)C)C(=O)N[C@@H](CCCNC(=N)N)C(=O)N[C@@H](C)C(=O)N[C@@H](Cc1c[nH]c2ccccc12)C(=O)N[C@H](C(=O)N[C@@H](C)C(=O)N[C@@H](Cc1c[nH]c2ccccc12)C(=O)N[C@@H](CCCNC(=N)N)C(=O)N[C@@H](CC(N)=O)C(=O)N[C@@H](CCCNC(=N)N)C(=O)O)C(C)C [HL18, RVVRDPQGIRAWVAWRNR] (H-RVVRDPQGIRAWVAWRNR-OH; N-terminus and C-terminus assumed) | 58 nM | – | EC50 [1]: 56 nM
Lysozyme: Human lysozyme, whole molecule | – | – | EC50 (HIV-1; read-out: Anti-HIV EC50): 50 nM; EC50 (HIV-1; read-out: Anti-HIV activity (EC50)): 50 nM; EC50 (HIV-1; read-out: anti-HIV EC50 (50% inhibition concentration)): 55 nM; EC50 ([1]; read-out: Anti-KS EC50, Table 4): 54 nM
RAWVAYRNR [HL9 (W112→Y)] | – | No Anti-HIV | –
RAYVAWRNR [HL9 (W109→Y)] | – | No Anti-HIV | –
RVVRDPQGI [HL18-N9] | – | No Anti-HIV | anti-HIV activity (HIV-1): no anti-HIV activity
RVVRDPQGIRAWVAYRNR [HL18 (W112-Y)] | – | No Anti-HIV | –
RVVRDPQGIRAYVAWRNR [HL18 (W109-Y)] | – | No Anti-HIV | –
